{"source": "patent US9074014B2", "about": "(Ipsen Pharma S.A.S., priority 2008, dated 2015)", "key": {"[1]": {"experiment": "Human plasma half-life assay", "type": "in vitro ADME", "details": "human plasma, 37° C., LC-MS; read-out: Human Plasma T½ (converted)"}, "[2]": {"experiment": "Rat plasma half-life assay", "type": "in vitro ADME", "details": "rat plasma, 37° C., LC-MS; read-out: Rat Plasma T½ (converted)"}}, "data": [{"smiles": "CC[C@H](C)[C@H](NC(=O)[C@H](CO)NC(=O)[C@H](Cc1ccc(O)cc1)NC(=O)[C@H](CC(=O)O)NC(=O)[C@H](CO)NC(=O)[C@@H](NC(=O)[C@H](Cc1ccccc1)NC(=O)[C@@H](NC(=O)CNC(=O)[C@@H]1CCCCN1C(=O)[C@H](C)NC(=O)[C@@H](N)Cc1ccc(O)cc1)[C@@H](C)O)[C@@H](C)CC)C(=O)N[C@@H](C)C(=O)NC1(C(=O)N[C@@H](CC(=O)O)C(=O)N[C@@H](CCCCN)C(=O)N[C@H](C(=O)N[C@@H](Cc2c[nH]cn2)C(=O)N[C@@H](CCC(N)=O)C(=O)N[C@@H](CCC(N)=O)C(=O)N[C@@H](CC(=O)O)C(=O)N[C@@H](Cc2ccccc2)C(=O)N[C@H](C(=O)N[C@@H](CC(N)=O)C(=O)N[C@@H](Cc2c[nH]c3ccccc23)C(=O)N[C@@H](CC(C)C)C(=O)N[C@@H](CC(C)C)C(=O)N[C@@H](C)C(=O)N[C@@H](CCC(N)=O)C(=O)N[C@@H](CCCCN)C(=O)NCC(=O)N[C@@H](CCCCN)C(=O)N[C@@H](CCCCN)C(=O)N[C@@H](CC(N)=O)C(=O)N[C@@H](CC(=O)O)C(=O)N[C@@H](Cc2c[nH]c3ccccc23)C(=O)N[C@@H](CCCCN)C(=O)N[C@@H](Cc2c[nH]cn2)C(=O)N[C@@H](CC(N)=O)C(=O)N[C@H](C(=O)N[C@H](C(=O)N[C@@H](CCC(N)=O)C(=O)O)[C@@H](C)O)[C@@H](C)CC)C(C)C)[C@@H](C)CC)CCCCC1", "note": "[Example 72, (hPro^3, A6c^14)hGIP(1-42)-OH]", "values": [{"measurement": "half-life at 0.1 mg/ml", "setting": "[1]", "result": 10.7, "unit": "h"}, {"measurement": "half-life at 0.1 mg/ml", "setting": "[2]", "result": 0.45, "unit": "h"}]}, {"smiles": "CC[C@H](C)[C@H](NC(=O)[C@H](CCCCN)NC(=O)[C@H](CC(=O)O)NC(=O)[C@H](CCSC)NC(=O)[C@H](C)NC(=O)[C@@H](NC(=O)C1(NC(=O)[C@H](Cc2ccc(O)cc2)NC(=O)[C@H](CC(=O)O)NC(=O)[C@H](CO)NC(=O)[C@@H](NC(=O)[C@H](Cc2ccccc2)NC(=O)[C@@H](NC(=O)CNC(=O)[C@@H]2CCCCN2C(=O)[C@H](C)NC(=O)[C@@H](N)Cc2ccc(O)cc2)[C@@H](C)O)[C@@H](C)CC)CCCC1)[C@@H](C)CC)C(=O)N[C@@H](Cc1c[nH]cn1)C(=O)N[C@@H](CCC(N)=O)C(=O)N[C@@H](CCC(N)=O)C(=O)N[C@@H](CC(=O)O)C(=O)N[C@@H](Cc1ccccc1)C(=O)N[C@H](C(=O)N[C@@H](CC(N)=O)C(=O)N[C@@H](Cc1c[nH]c2ccccc12)C(=O)N[C@@H](CC(C)C)C(=O)N[C@@H](CC(C)C)C(=O)N[C@@H](C)C(=O)N[C@@H](CCC(N)=O)C(=O)N[C@@H](CCCCN)C(=O)NCC(=O)N[C@@H](CCCCN)C(=O)N[C@@H](CCCCN)C(=O)N[C@@H](CC(N)=O)C(=O)N[C@@H](CC(=O)O)C(=O)N[C@@H](Cc1c[nH]c2ccccc12)C(=O)N[C@@H](CCCCN)C(=O)N[C@@H](Cc1c[nH]cn1)C(=O)N[C@@H](CC(N)=O)C(=O)N[C@H](C(=O)N[C@H](C(=O)N[C@@H](CCC(N)=O)C(=O)O)[C@@H](C)O)[C@@H](C)CC)C(C)C", "note": "[Example 74, (hPro^3, A5c^11)hGIP(1-42)-OH]", "values": [{"measurement": "half-life at 0.1 mg/ml", "setting": "[1]", "result": 16.3, "unit": "h"}, {"measurement": "half-life at 0.1 mg/ml", "setting": "[2]", "result": 1.3, "unit": "h"}]}, {"smiles": "CC[C@H](C)[C@H](NC(=O)[C@H](CO)NC(=O)[C@H](Cc1ccc(O)cc1)NC(=O)[C@H](CC(=O)O)NC(=O)[C@H](CO)NC(=O)C1(NC(=O)[C@H](Cc2ccccc2)NC(=O)[C@@H](NC(=O)CNC(=O)[C@@H]2CCCN2C(=O)[C@H](C)NC(=O)[C@@H](N)Cc2ccc(O)cc2)[C@@H](C)O)CCCC1)C(=O)N[C@@H](C)C(=O)NC1(C(=O)N[C@@H](CC(=O)O)C(=O)N[C@@H](CCCCN)C(=O)N[C@H](C(=O)N[C@@H](Cc2c[nH]cn2)C(=O)N[C@@H](CCC(N)=O)C(=O)N[C@@H](CCC(N)=O)C(=O)N[C@@H](CC(=O)O)C(=O)N[C@@H](Cc2ccccc2)C(=O)N[C@H](C(=O)N[C@@H](CC(N)=O)C(=O)N[C@@H](Cc2c[nH]c3ccccc23)C(=O)N[C@@H](CC(C)C)C(=O)N[C@@H](CC(C)C)C(=O)N[C@@H](C)C(=O)N[C@@H](CCC(N)=O)C(=O)N[C@@H](CCCCN)C(=O)NCC(=O)N[C@@H](CCCCN)C(=O)N[C@@H](CCCCN)C(=O)N[C@@H](CC(N)=O)C(=O)N[C@@H](CC(=O)O)C(=O)N[C@@H](Cc2c[nH]c3ccccc23)C(=O)N[C@@H](CCCCN)C(=O)N[C@@H](Cc2c[nH]cn2)C(=O)N[C@@H](CC(N)=O)C(=O)N[C@H](C(=O)N[C@H](C(=O)N[C@@H](CCC(N)=O)C(=O)O)[C@@H](C)O)[C@@H](C)CC)C(C)C)[C@@H](C)CC)CCCC1", "note": "[Example 76, (Pro^3, A5c^7, 14)hGIP(1-42)-OH]", "values": [{"measurement": "half-life at 0.1 mg/ml", "setting": "[1]", "result": 55.9, "unit": "h"}, {"measurement": "half-life at 0.1 mg/ml", "setting": "[2]", "result": 1, "unit": "h"}]}, {"smiles": "CC[C@H](C)[C@H](NC(=O)[C@H](CCCCN)NC(=O)[C@H](CC(=O)O)NC(=O)[C@H](CCSC)NC(=O)[C@H](C)NC(=O)[C@@H](NC(=O)C1(NC(=O)[C@H](Cc2ccc(O)cc2)NC(=O)[C@H](CC(=O)O)NC(=O)[C@H](CO)NC(=O)[C@@H](NC(=O)[C@H](Cc2ccccc2)NC(=O)[C@@H](NC(=O)CNC(=O)[C@@H]2CCCN2C(=O)[C@H](C)NC(=O)[C@@H](N)Cc2ccc(O)cc2)[C@@H](C)O)[C@@H](C)CC)CCCC1)[C@@H](C)CC)C(=O)N[C@@H](Cc1c[nH]cn1)C(=O)N[C@@H](CCC(N)=O)C(=O)N[C@@H](CCC(N)=O)C(=O)N[C@@H](CC(=O)O)C(=O)N[C@@H](Cc1ccccc1)C(=O)N[C@H](C(=O)N[C@@H](CC(N)=O)C(=O)N[C@@H](Cc1c[nH]c2ccccc12)C(=O)N[C@@H](CC(C)C)C(=O)N[C@@H](CC(C)C)C(=O)N[C@@H](C)C(=O)N[C@@H](CCC(N)=O)C(=O)N[C@@H](CCCCN)C(=O)NCC(=O)N[C@@H](CCCCN)C(=O)N[C@@H](CCCCN)C(=O)N[C@@H](CC(N)=O)C(=O)N[C@@H](CC(=O)O)C(=O)N[C@@H](Cc1c[nH]c2ccccc12)C(=O)N[C@@H](CCCCN)C(=O)N[C@@H](Cc1c[nH]cn1)C(=O)N[C@@H](CC(N)=O)C(=O)N[C@H](C(=O)N[C@H](C(=O)N[C@@H](CCC(N)=O)C(=O)O)[C@@H](C)O)[C@@H](C)CC)C(C)C", "note": "[Example 77, (Pro^3, A5c^11)hGIP(1-42)-OH]", "values": [{"measurement": "half-life at 0.1 mg/ml", "setting": "[1]", "result": 43.3, "unit": "h"}, {"measurement": "half-life at 0.1 mg/ml", "setting": "[2]", "result": 1.5, "unit": "h"}]}, {"smiles": "CC[C@H](C)[C@H](NC(=O)[C@H](CCCCN)NC(=O)[C@H](CC(=O)O)NC(=O)C1(NC(=O)[C@H](C)NC(=O)[C@@H](NC(=O)C2(NC(=O)[C@H](Cc3ccc(O)cc3)NC(=O)[C@H](CC(=O)O)NC(=O)[C@H](CO)NC(=O)[C@@H](NC(=O)[C@H](Cc3ccccc3)NC(=O)[C@@H](NC(=O)CNC(=O)[C@@H]3CCCCN3C(=O)[C@H](C)NC(=O)[C@@H](N)Cc3ccc(O)cc3)[C@@H](C)O)[C@@H](C)CC)CCCC2)[C@@H](C)CC)CCCCC1)C(=O)N[C@@H](Cc1c[nH]cn1)C(=O)N[C@@H](CCC(N)=O)C(=O)N[C@@H](CCC(N)=O)C(=O)N[C@@H](CC(=O)O)C(=O)N[C@@H](Cc1ccccc1)C(=O)N[C@H](C(=O)N[C@@H](CC(N)=O)C(=O)N[C@@H](Cc1c[nH]c2ccccc12)C(=O)N[C@@H](CC(C)C)C(=O)N[C@@H](CC(C)C)C(=O)N[C@@H](C)C(=O)N[C@@H](CCC(N)=O)C(=O)N[C@@H](CCCCN)C(=O)NCC(=O)N[C@@H](CCCCN)C(=O)N[C@@H](CCCCN)C(=O)N[C@@H](CC(N)=O)C(=O)N[C@@H](CC(=O)O)C(=O)N[C@@H](Cc1c[nH]c2ccccc12)C(=O)N[C@@H](CCCCN)C(=O)N[C@@H](Cc1c[nH]cn1)C(=O)N[C@@H](CC(N)=O)C(=O)N[C@H](C(=O)N[C@H](C(=O)N[C@@H](CCC(N)=O)C(=O)O)[C@@H](C)O)[C@@H](C)CC)C(C)C", "note": "[Example 83, (hPro^3, A5c^11, A6c^14)hGIP(1-42)-OH]", "values": [{"measurement": "half-life at 0.1 mg/ml", "setting": "[1]", "result": 32.4, "unit": "h"}, {"measurement": "half-life at 0.1 mg/ml", "setting": "[2]", "result": 1.1, "unit": "h"}]}, {"smiles": "CC[C@H](C)[C@H](NC(=O)[C@H](CCCCN)NC(=O)[C@H](CC(=O)O)NC(=O)C1(NC(=O)[C@H](C)NC(=O)[C@@H](NC(=O)C2(NC(=O)[C@H](Cc3ccc(O)cc3)NC(=O)[C@H](CC(=O)O)NC(=O)[C@H](CO)NC(=O)[C@@H](NC(=O)[C@H](Cc3ccccc3)NC(=O)[C@@H](NC(=O)CNC(=O)[C@@H]3CC(O)CN3C(=O)[C@H](C)NC(=O)[C@@H](N)Cc3ccc(O)cc3)[C@@H](C)O)[C@@H](C)CC)CCCC2)[C@@H](C)CC)CCCCC1)C(=O)N[C@@H](Cc1c[nH]cn1)C(=O)N[C@@H](CCC(N)=O)C(=O)N[C@@H](CCC(N)=O)C(=O)N[C@@H](CC(=O)O)C(=O)N[C@@H](Cc1ccccc1)C(=O)N[C@H](C(=O)N[C@@H](CC(N)=O)C(=O)N[C@@H](Cc1c[nH]c2ccccc12)C(=O)N[C@@H](CC(C)C)C(=O)N[C@@H](CC(C)C)C(=O)N[C@@H](C)C(=O)N[C@@H](CCC(N)=O)C(=O)N[C@@H](CCCCN)C(=O)NCC(=O)N[C@@H](CCCCN)C(=O)N[C@@H](CCCCN)C(=O)N[C@@H](CC(N)=O)C(=O)N[C@@H](CC(=O)O)C(=O)N[C@@H](Cc1c[nH]c2ccccc12)C(=O)N[C@@H](CCCCN)C(=O)N[C@@H](Cc1c[nH]cn1)C(=O)N[C@@H](CC(N)=O)C(=O)N[C@H](C(=O)N[C@H](C(=O)N[C@@H](CCC(N)=O)C(=O)O)[C@@H](C)O)[C@@H](C)CC)C(C)C", "note": "(some centres unmarked) [Example 88, (4Hyp^3, A5c^11, A6c^14)hGIP(1-42)-OH]", "values": [{"measurement": "half-life at 0.1 mg/ml", "setting": "[1]", "result": "> 48", "unit": "h"}, {"measurement": "half-life at 0.1 mg/ml", "setting": "[2]", "result": 4.4, "unit": "h"}]}, {"smiles": "CC[C@H](C)[C@H](NC(=O)[C@H](CO)NC(=O)[C@H](Cc1ccc(O)cc1)NC(=O)[C@H](CC(=O)O)NC(=O)[C@H](CO)NC(=O)C1(NC(=O)[C@H](Cc2ccccc2)NC(=O)[C@@H](NC(=O)CNC(=O)[C@@H]2CCCN2C(=O)C(C)(C)NC(=O)[C@@H](N)Cc2ccc(O)cc2)[C@@H](C)O)CCCCC1)C(=O)N[C@@H](C)C(=O)N[C@@H](CCSC)C(=O)N[C@@H](CC(=O)O)C(=O)N[C@@H](CCCCN)C(=O)N[C@H](C(=O)N[C@@H](Cc1c[nH]cn1)C(=O)N[C@@H](CCC(N)=O)C(=O)N[C@@H](CCC(N)=O)C(=O)N[C@@H](CC(=O)O)C(=O)N[C@@H](Cc1ccccc1)C(=O)N[C@H](C(=O)N[C@@H](CC(N)=O)C(=O)N[C@@H](Cc1c[nH]c2ccccc12)C(=O)N[C@@H](CC(C)C)C(=O)N[C@@H](CC(C)C)C(=O)N[C@@H](C)C(=O)N[C@@H](CCC(N)=O)C(=O)N[C@@H](CCCCN)C(N)=O)C(C)C)[C@@H](C)CC", "note": "[Example 109, (Aib^2, Pro^3, A6c^7)hGIP(1-30)-NH2]", "values": [{"measurement": "half-life at 0.1 mg/ml", "setting": "[1]", "result": 27.2, "unit": "h"}, {"measurement": "half-life at 0.1 mg/ml", "setting": "[2]", "result": 47.8, "unit": "h"}]}]}
